Patent publication US8690874B2, “Composition and process for bone growth and repair” (Zimmer Orthobiologics, Inc., priority 2000, dated 2014)
“And” between values parts separate entries of the source, which are not always exact repeats. Equal values may be shown once. “Also recorded” adds a separate entry of the source. Read-outs that look alike come from different tables or passages of the source.

Assays:
[1] = tested on: subcutaneous rat implant model; assay: Subcutaneous rat implant model, collagen/GFm sponges supplemented with calcium phosphates (Example 3/5); format: in vivo; details: for Average Mineral Mass / Average Explant Mass / Average Histology Score [0-5]: inter-animal average; for Average Mineral Mass: ash weight; for Average Explant Mass: collagen 7 mg + GFm 10 μg, additive 7 mg (50 wt. %); for Average Histology Score [0-5] / Histology score, Direct Comparison Averages [0-5]: scoring of Table 7; for Explant mass, Direct Comparison Averages / Mineral mass, Direct Comparison Average / Histology score, Direct Comparison Averages [0-5]: intra-animal comparison subset; for bone quality and maturity in histological sections: photomicrographs FIG. 15, H&E/Von Kossa, toluidine blue; for Explant mass, Direct Comparison Δwt. % / Histology score, Direct Comparison [%] / Mineral mass, Direct Comparison Δwt. %: relative to intra-animal collagen/GFm control; for effect on explant and mineral mass: versus collagen controls / other compositions
Protocol: The advantages of the rat model for product evaluation include an accelerated rate of bone induction. Visible evidence of mineralization appears in the implant within several days (˜10), with typical experiments lasting between 14 and 21 days. The testing protocol involved implantation of porous collagen (bovine tendon Type 1, 7 mg, 96 vol. % porosity) samples containing a natural mixture of bovine, osteoinductive proteins (GFm, 10 μg). […] Samples were implanted in four subcutaneous sites including the upper quadrants of the abdomen (sites 1, 2) and the upper quadrants of the dorsal thorax (sites 6, 7). The osteoinductive differences between controls and calcium phosphate supplemented samples [7 mg, 50 wt. %] were assessed using three standard test protocols: histological tissue analysis and mineral composition via x-ray and ash weight analysis (Intermedics Orthopedics/Denver, Inc. Histology protocol STM 009; Intermedics Orthopedics/Denver, Inc. Alkaline phophatase protocol STM 0024, 0026).
Samples were assessed in comparison to two different control sample populations, including: collagen sponges and collagen/GFm sponges supplemented with 50 wt % devitalized bone matrix (DVBM) additives. The collagen/GFm control samples were used as a reference for a baseline osteoinductive response. A calcium phosphate additive was considered detrimental if it either reduced the explant or mineral mass values or if it negatively influenced bone maturation. […] These samples were prepared as an alternative for demineralized bone matrix (DBM) additives. Demineralized bone matrix provides both an ideal osteoconductive matrix for cellular invasion and bone mineralization and a pooled concentration of osteoinductive proteins.
ANOVA was performed without data replications turning the analysis into an expanded pool Student-T test. Statistical significance was predicted using α<0.05. […] Compositions that had no significant influence on mass are indicated in plain text. Compositions that stimulated a statistically significant improvement in mass are indicated in bold text [Tables 5 and 6].
The quality and skeletal maturity of produced bone was assessed through histological microscopic analysis of thin, stained tissue sections. […] Thin sections (4 μm) from the explant midlines were obtained with a microtome. One section was stained with hematoxylin & eosin (H&E) and one was stained with toluidine blue to highlight important cellular details. The H&E sections were counterstained with silver nitrate (Von Kossa technique) to highlight mineralized tissue components. The histological sections were scored for quality and maturity using a scoring system, outlined in Table 7, previously developed by Sulzer Biologics according to STM-021. […]

[2] = pH buffering potential of calcium salts; format: physicochemical
[3] = Equilibrium solubility of calcium and phosphate ions from calcium phosphate salts; format: physicochemical
[4] = equilibrium solubility of the salt

Row | Compound | Average Mineral Mass [1] | Average Explant Mass [1] | Average Histology Score [0-5] [1] | Explant mass, Direct Comparison Averages [1] | Mineral mass, Direct Comparison Average [1] | Histology score, Direct Comparison Averages [0-5] [1] | improvement in histological score ([1]; intra-animal, relative to collagen control) | bone quality and maturity in histological sections [1] | Explant mass, Direct Comparison Δwt. % [1] | Histology score, Direct Comparison [%] [1] | Mineral mass, Direct Comparison Δwt. % [1] | Explant mass, Direct Comparison Δwt. % ([1]; listed as 2CaO.P2O5) | Mineral mass, Direct Comparison Δwt. % ([1]; listed as 2CaO.P2O5) | effect on explant and mineral mass [1] | histological score / osteoinductive performance, statistical comparison ([1]; α<0.05) | pH (buffering potential of the salt) [2] | pH (buffering potential of the salt) ([2]; listed as Hydroxyapatites) | Insoluble fraction [200 mg/cc] ([3]; 200 mg/cc) [wt. %] | Equilibrium [Ca^2+] [3, 4] [µM] | Equilibrium [PO4^3−] [3, 4] [µM]
1 | O=P([O-])([O-])OP(=O)([O-])[O-].[Ca+2].[Ca+2] [2CaO•P2O5•2H2O (CP), calcium pyrophosphate] | 20.8 mg | 126.2 mg | 2.3 | 170.3 mg | 31.5 mg | 2.3 | +163 wt. % | comparatively reduced in maturity but were greater than control samples | +99.6% wt. % | +11.1% | +163.0% wt. % | +99.6 wt. % | +263 wt. % | appreciably enhanced; also recorded: significantly enhanced explant and mineral mass values | Statistically superior improvements in histological score | – | – | – | – | –
2 | O=P([O-])([O-])[O-].O=P([O-])([O-])[O-].[Ca+2].[Ca+2].[Ca+2] [3CaO•P2O5 (α-TCP), tricalcium phosphate] | 6.5 mg | 39.5 mg | 1.1 | 58.7 mg | 9.4 mg | 1.3 | – | – | −42.9% wt. % | −35.1% | −28.3% wt. % | – | – | – | – | – | – | – | – | –
3 | O=P([O-])([O-])[O-].O=P([O-])([O-])[O-].[Ca+2].[Ca+2].[Ca+2] [3CaO•P2O5 (β-TCP), tricalcium phosphate] | 8.1 mg | 80.1 mg | 1.3 | 71.6 mg | 5.7 mg | 1.3 | – | – | −26.3% wt. % | −23.9% | −31.6% wt. % | – | – | – | – | – | – | – | – | –
4 | O=C([O-])[O-].[Ca+2] [CaCO3 (aragonite), calcium carbonate] | 10.4 mg | 69.4 mg | 1.0 | 88.6 mg | 14.5 mg | 1.0 | – | – | −27.3% wt. % | −63.9% | +3.8% wt. % | – | – | – | – | – | – | – | – | –
5 | O=C([O-])[O-].[Ca+2] [CaCO3 (calcite), calcium carbonate] | 7.9 mg | 67.4 mg | 1.0 | 73.1 mg | 8.1 mg | 1.0 | – | – | −28.0% wt. % | −58.3% | −3.2% wt. % | – | – | – | – | – | – | – | – | –
6 | O=C([O-])[O-].[Ca+2] [calcium carbonates, calcium carbonate] | – | – | – | – | – | – | – | comparatively reduced | – | – | – | – | – | – | – | – | – | – | – | –
7 | hydroxyapatite [3.33CaO.P2O5(OH)2 (Calcitek)] | – | – | – | – | – | – | – | – | +44.1 wt. % | – | +279.6 wt. % | – | – | – | – | – | – | – | – | –
8 | hydroxyapatite [3.33CaO•P2O5 (HA-am)] | 26.5 mg and 29.4 mg | 129.9 mg and 117.9 mg | 1.3 and 1.4 | 120.3 mg and 140.6 mg | 27.1 mg and 30.4 mg | 1.2 and 1.7 | – | – | – | – | – | – | – | – | – | – | – | – | – | –
9 | hydroxyapatite [3.33CaO•P2O5 (HA-px)] | 19.8 mg | 113.5 mg | 1.4 | 124.7 mg | 21.9 mg | 2.0 | – | – | +4.5% wt. % | −26.7% | +74.3% wt. % | – | – | – | – | – | – | – | – | –
10 | hydroxyapatite [Ca5(PO4)3(OH) (HA)] | – | – | – | – | – | – | – | negative effect on bone ossicle maturation; also recorded: comparatively reduced | – | – | – | – | – | appreciably enhanced | – | ~8.5 and ~9 | ~8 | 99.9999 | 2.2 | 1.3
